Experimental data from PubChem BioAssay AID328 (DTP/NCI, 2004).
Several values for one entry are separate records, joined by “and”; a condition that tells them apart may be missing. Equal values may be shown once. Inconclusive results and toxic doses are left out. Non-standard residues stand in square brackets, D forms with d. Residues, ends and D or L forms follow the SMILES beside them. ξ: configuration not given here. *: point of attachment. Trt = c1ccc(C(c2ccccc2)(c2ccccc2)*)cc1; Boc = CC(C)(C)OC(=O)*; ξM = CSCCC(N)C(=O)O

Test system: BDF1 mice, P388 leukemia ip, median survival T/C
Assay: NCI In Vivo Anticancer Drug Screen. Data for tumor model P388 Leukemia (intraperitoneal) in B6D2F1 (BDF1) mice
Conditions: endpoint: median survival time, higher = longer survival
How it was run: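 In tumour-bearing mice, survival after compound treatment is set against the vehicle group and given as a quotient.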

[1] = dose: 50.0 mg/kg/injection, schedule: Q04DX003 (ip), vehicle: water
[2] = dose: 100.0 mg/kg/injection, schedule: Q04DX003 (ip), vehicle: water
[3] = dose: 200.0 mg/kg/injection, schedule: Q04DX003 (ip), vehicle: water
[4] = dose: 100.0 mg/kg/injection, schedule: Q04DX003 (ip), vehicle: saline
[5] = dose: 50.0 mg/kg/injection, schedule: Q01DX009 (ip), vehicle: saline with Tween-80
[6] = dose: 100.0 mg/kg/injection, schedule: Q01DX009 (ip), vehicle: saline with Tween-80
[7] = dose: 100.0 mg/kg/injection, schedule: Q04DX003 (ip), vehicle: saline with Tween-80
[8] = dose: 200.0 mg/kg/injection, schedule: Q04DX003 (ip), vehicle: saline with Tween-80

In the case of `COc1ccc(C=O)cc1OCc1ccccc1`, the T/C (dose: 6.25 mg/kg/injection, schedule: Q01DX009 (ip), vehicle: water) is reported as 113 % of control, the T/C (dose: 12.5 mg/kg/injection, schedule: Q01DX009 (ip), vehicle: water) is reported as 104 % of control and the T/C (dose: 25.0 mg/kg/injection, schedule: Q01DX009 (ip), vehicle: water) is reported as 109 % of control. For the same molecule, the T/C (dose: 50.0 mg/kg/injection, schedule: Q01DX009 (ip), vehicle: water) was 101 % of control and 116 % of control, the T/C [1] was 104 % of control and the T/C (dose: 100.0 mg/kg/injection, schedule: Q01DX009 (ip), vehicle: water) was 95 % of control and 97 % of control. For the same molecule, the T/C [2] was 102 % of control and 117 % of control, the T/C (dose: 200.0 mg/kg/injection, schedule: Q01DX009 (ip), vehicle: water) was 116 % of control and the T/C [3] was 102 % of control and 114 % of control. For the same molecule, the T/C (dose: 400.0 mg/kg/injection, schedule: Q04DX003 (ip), vehicle: water) was 117 % of control.
`c1ccc(OP2OCCO2)cc1` was tested, and the T/C (dose: 50.0 mg/kg/injection, schedule: Q01DX009 (ip), vehicle: saline) was 104 % of control, the T/C (dose: 100.0 mg/kg/injection, schedule: Q01DX009 (ip), vehicle: saline) was 104 % of control and the T/C [4] was 87 % of control. For the same molecule, the T/C (dose: 200.0 mg/kg/injection, schedule: Q01DX009 (ip), vehicle: saline) was 95 % of control and the T/C (dose: 200.0 mg/kg/injection, schedule: Q04DX003 (ip), vehicle: saline) was 112 % of control.
In the case of `Cc1cc(C)c(C)c(Br)c1`, the T/C [5] is reported as 100 % of control and the T/C [6] is reported as 104 % of control.
With `CCOC(=O)c1ccc(NC(=O)Nc2nc(C)cs2)cc1` the T/C (dose: 25.0 mg/kg/injection, schedule: Q01DX009 (ip), vehicle: other) was 103 % of control and the T/C (dose: 100.0 mg/kg/injection, schedule: Q01DX009 (ip), vehicle: other) was 99 % of control.
With `Cc1cccc2c(Nc3ccc(NS(C)(=O)=O)cc3)c3ccccc3nc12` the T/C (dose: 0.88 mg/kg/injection, schedule: Q01DX009 (ip), vehicle: saline with Tween-80) was 123 % of control, the T/C (dose: 2.93 mg/kg/injection, schedule: Q04DX003 (ip), vehicle: saline with Tween-80) was 118 % of control and the T/C (dose: 3.0 mg/kg/injection, schedule: Q01DX009 (ip), vehicle: saline with Tween-80) was 153 % of control. The T/C (dose: 5.0 mg/kg/injection, schedule: Q01DX009 (ip), vehicle: saline with Tween-80) was 166 % of control, the T/C (dose: 10.0 mg/kg/injection, schedule: Q01DX009 (ip), vehicle: saline with Tween-80) was 203 % of control and the T/C (dose: 20.0 mg/kg/injection, schedule: Q01DX009 (ip), vehicle: saline with Tween-80) was 197 % of control. For the same molecule, the T/C (dose: 20.0 mg/kg/injection, schedule: Q04DX003 (ip), vehicle: saline with Tween-80) was 150 % of control, the T/C (dose: 22.0 mg/kg/injection, schedule: Q04DX003 (ip), vehicle: saline with Tween-80) was 168 % of control and the T/C (dose: 30.0 mg/kg/injection, schedule: Q04DX003 (ip), vehicle: saline with Tween-80) was 154 % of control. The T/C (dose: 33.0 mg/kg/injection, schedule: Q04DX003 (ip), vehicle: saline with Tween-80) was 181 % of control, the T/C (dose: 50.0 mg/kg/injection, schedule: Q04DX003 (ip), vehicle: saline with Tween-80) was 245 % of control and the T/C (dose: 75.0 mg/kg/injection, schedule: Q04DX003 (ip), vehicle: saline with Tween-80) was 259 % of control. For the same molecule, the T/C [7] was 204 % of control and the T/C [8] was 272 % of control.
`Cc1cnccc1Br` was tested, and the T/C (dose: 12.5 mg/kg/injection, schedule: Q04DX003 (ip), vehicle: water) was 103 % of control, the T/C (dose: 25.0 mg/kg/injection, schedule: Q04DX003 (ip), vehicle: water) was 103 % of control and the T/C [1] was 103 % of control. The T/C [2] was 97 % of control and the T/C [3] was 94 % of control.
`CC(C)(C)OC(=O)NCCCCC(NC(=O)CNC(=O)C(CSC(c1ccccc1)(c1ccccc1)c1ccccc1)NC(=O)OC(C)(C)C)C(=O)O` (centres undefined) (Boc-Cys(Trt)-Gly-Lys(Boc)-OH; configuration not given here) was tested, and the T/C (dose: 25.0 mg/kg/injection, schedule: Q04DX003 (ip), vehicle: saline) was 100 % of control, the T/C (dose: 50.0 mg/kg/injection, schedule: Q04DX003 (ip), vehicle: saline) was 104 % of control and the T/C [4] was 104 % of control.
With `CC(=O)OCC(=O)[C@@]1(O)CC[C@H]2[C@@H]3CCC4=CC(=O)CC[C@]4(C)[C@H]3C(=O)C[C@@]21C` the T/C [5] was 95 % of control, the T/C [6] was 112 % of control and the T/C [7] was 100 % of control. For the same molecule, the T/C (dose: 200.0 mg/kg/injection, schedule: Q01DX009 (ip), vehicle: saline with Tween-80) was 100 % of control and the T/C [8] was 86 % of control.
For `Cc1ccc2c3csc4ccccc4c-3nc2c1`, the T/C (dose: 1.56 mg/kg/injection, schedule: Q01DX009 (ip), vehicle: saline) was 113 % of control, the T/C (dose: 3.12 mg/kg/injection, schedule: Q01DX009 (ip), vehicle: saline) was 113 % of control and the T/C (dose: 6.25 mg/kg/injection, schedule: Q01DX009 (ip), vehicle: saline) was 113 % of control. For the same molecule, the T/C (dose: 12.5 mg/kg/injection, schedule: Q01DX009 (ip), vehicle: saline) was 100 % of control and 111 % of control, the T/C (dose: 18.0 mg/kg/injection, schedule: Q01DX009 (ip), vehicle: saline) was 118 % of control and the T/C (dose: 25.0 mg/kg/injection, schedule: Q01DX009 (ip), vehicle: saline) was 104 % of control.
With `C=C(C)C12OC3(c4ccccc4)OC1C1C4OC4(CO)C(O)C4(O)C(=O)C(C)=CC4C1(O3)C(C)C2OC(=O)/C=C/c1ccccc1` (centres undefined) the T/C (dose: 6.3 micrograms/kg/injection, schedule: Q## X009 (ip), vehicle: saline + alcohol) was 114 % of control, the T/C (dose: 12.5 micrograms/kg/injection, schedule: Q## X009 (ip), vehicle: saline + alcohol) was 110 % of control and the T/C (dose: 25.0 micrograms/kg/injection, schedule: Q## X009 (ip), vehicle: saline + alcohol) was 118 % of control. For the same molecule, the T/C (dose: 50.0 micrograms/kg/injection, schedule: Q## X009 (ip), vehicle: saline + alcohol) was 109 % of control, the T/C (dose: 100.0 micrograms/kg/injection, schedule: Q## X009 (ip), vehicle: saline + alcohol) was 159 % of control and the T/C (dose: 200.0 micrograms/kg/injection, schedule: Q## X009 (ip), vehicle: saline + alcohol) was 173 % of control.
For `O=S(=O)(NS(=O)(=O)c1ccc(Cl)cc1)c1ccc(Cl)cc1`, the T/C (dose: 50.0 mg/kg/injection, schedule: Q01DX009 (ip), vehicle: Klucel (hydroxypropylcellulose) (HPC)) was 95 % of control, the T/C (dose: 100.0 mg/kg/injection, schedule: Q01DX009 (ip), vehicle: Klucel (hydroxypropylcellulose) (HPC)) was 115 % of control and the T/C (dose: 100.0 mg/kg/injection, schedule: Q04DX003 (ip), vehicle: Klucel (hydroxypropylcellulose) (HPC)) was 95 % of control. For the same molecule, the T/C (dose: 200.0 mg/kg/injection, schedule: Q01DX009 (ip), vehicle: Klucel (hydroxypropylcellulose) (HPC)) was 115 % of control and the T/C (dose: 200.0 mg/kg/injection, schedule: Q04DX003 (ip), vehicle: Klucel (hydroxypropylcellulose) (HPC)) was 86 % of control.
With `Nc1nc(=O)c2ccccc2s1` the T/C [7] was 105 % of control, the T/C [8] was 111 % of control and the T/C (dose: 400.0 mg/kg/injection, schedule: Q04DX003 (ip), vehicle: saline with Tween-80) was 100 % of control.
For `CCNCc1cc(Nc2cc(C)nc(/N=C(\N)Nc3ccc(Cl)c(Cl)c3)n2)ccc1OC`, the T/C (dose: 6.25 mg/kg/injection, schedule: Q01DX009 (ip), vehicle: Klucel (hydroxypropylcellulose) (HPC)) was 90 % of control, the T/C (dose: 8.75 mg/kg/injection, schedule: Q04DX003 (ip), vehicle: Klucel (hydroxypropylcellulose) (HPC)) was 112 % of control and the T/C (dose: 12.5 mg/kg/injection, schedule: Q01DX009 (ip), vehicle: Klucel (hydroxypropylcellulose) (HPC)) was 100 % of control. The T/C (dose: 17.5 mg/kg/injection, schedule: Q04DX003 (ip), vehicle: Klucel (hydroxypropylcellulose) (HPC)) was 108 % of control, the T/C (dose: 25.0 mg/kg/injection, schedule: Q01DX009 (ip), vehicle: Klucel (hydroxypropylcellulose) (HPC)) was 90 % of control and the T/C (dose: 33.0 mg/kg/injection, schedule: Q04DX003 (ip), vehicle: Klucel (hydroxypropylcellulose) (HPC)) was 116 % of control. The T/C (dose: 35.0 mg/kg/injection, schedule: Q04DX003 (ip), vehicle: Klucel (hydroxypropylcellulose) (HPC)) was 108 % of control, the T/C (dose: 50.0 mg/kg/injection, schedule: Q04DX003 (ip), vehicle: Klucel (hydroxypropylcellulose) (HPC)) was 108 % of control and the T/C (dose: 75.0 mg/kg/injection, schedule: Q04DX003 (ip), vehicle: Klucel (hydroxypropylcellulose) (HPC)) was 108 % of control. For the same molecule, the T/C (dose: 80.0 mg/kg/injection, schedule: Q04DX003 (ip), vehicle: Klucel (hydroxypropylcellulose) (HPC)) was 109 % of control.
With `CSCCC(NC(=O)CNC(=O)OC(C)(C)C)C(=O)NCC(=O)O` (stereo not drawn) (Boc-Gly-[ξM]-Gly-OH) the T/C (dose: 50.0 mg/kg/injection, schedule: Q01DX005 (ip), vehicle: saline with Tween-80) was 98 % of control, the T/C (dose: 100.0 mg/kg/injection, schedule: Q01DX005 (ip), vehicle: saline with Tween-80) was 95 % of control and the T/C (dose: 200.0 mg/kg/injection, schedule: Q01DX005 (ip), vehicle: saline with Tween-80) was 95 % of control.
